Experimental findings from patent publication US9221827B2, “Antimicrobial compounds and methods of making and using the same” (Melinta Therapeutics, Inc., priority 2011, dated 2015) are described below.

The test system of the experiment is Escherichia coli strain ATCC25922. The experiment is described as follows: standard microdilution assay to determine minimum inhibitory concentrations (MICs). Conditions: Escherichia coli strain ATCC25922, standard microdilution assay. Type of experiment: cell-based. In outline: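 Broth microdilution per CLSI (M7-A8/M100-S20), 100 μl final volume, with reference-strain quality control; MIC is the lowest inhibitory concentration. Scored "+"/"−" against a 16 micrograms/ml cutoff, "N/A" where unavailable.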
On the technique in general: In broth dilution the organism is exposed to a series of concentrations in liquid medium.
`C[C@H](NCCCNC(=N)N)c1ccc(-n2cc3cc(-c4cc(C5CCC(CN)CC5)cc(Cl)c4F)[nH]c3nc2=O)cc1` (stereo partly shown) [Compound 451]: the “E. coli ATCC25922 MIC” value is “+ (a “+” indicates that the compound has an MIC value of 16 micrograms/ml or less)”.
The result for `Cc1c(CC(C)C)cc(CCC[C@H](C)N)cc1-c1cc2cn(-c3ccc(CNCCCNC(=N)N)cc3)c(=O)nc2[nH]1` [Compound 452] reads “+ (a “+” indicates that the compound has an MIC value of 16 micrograms/ml or less)”.
The result for `Cc1c(CC(C)C)cc(CCC[C@H](C)N)cc1-c1cc2cn(-c3ccc([C@H](C)NCCCNC(=N)N)cc3)c(=O)nc2[nH]1` [Compound 453] reads “+ (a “+” indicates that the compound has an MIC value of 16 micrograms/ml or less)”; that for `CC(C)(N)COCc1cc(-c2cc3cn(-c4ccc(CNCCCNC(=N)N)cc4)c(=O)nc3[nH]2)cc(C(F)(F)F)c1` [Compound 454], “+ (a “+” indicates that the compound has an MIC value of 16 micrograms/ml or less)”; that for `C[C@H](NCCCNC(=N)N)c1ccc(-n2cc3cc(-c4cc(COCC(C)(C)N)cc(C(F)(F)F)c4)[nH]c3nc2=O)cc1` [Compound 455], “+ (a “+” indicates that the compound has an MIC value of 16 micrograms/ml or less)”.
The value for `C[C@H](N)CCCc1cc2c(c(-c3cc4cn(-c5ccc([C@H](C)NCCCNC(=N)N)cc5)c(=O)nc4[nH]3)c1)OCCC2=O` [Compound 456] was “+ (a “+” indicates that the compound has an MIC value of 16 micrograms/ml or less)”.
On to `C[C@H](N)CCCc1cc2c(c(-c3cc4cn(-c5ccc([C@H](C)NCCCNC(=N)N)cc5)c(=O)nc4[nH]3)c1)CC=C2` [Compound 457], for which the “E. coli ATCC25922 MIC” value is given as “+ (a “+” indicates that the compound has an MIC value of 16 micrograms/ml or less)”.
The value for `C[C@H](N)CCCc1cc(CC(C)(C)C)c(F)c(-c2cc3cn(-c4ccc([C@H](C)NCCCNC(=N)N)cc4)c(=O)nc3[nH]2)c1` [Compound 458] was “+ (a “+” indicates that the compound has an MIC value of 16 micrograms/ml or less)”.
The value for `N=C(N)NCCCNCc1ccc(-n2cc3cc(-c4cc(COC5COCC5N)cc(OC(F)(F)F)c4)[nH]c3nc2=O)cc1` (stereo not shown) [Compound 459] was “+ (a “+” indicates that the compound has an MIC value of 16 micrograms/ml or less)”; that for `C[C@H](NCCCNC(=N)N)c1ccc(-n2cc3cc(-c4cc(COC5COCC5N)cc(OC(F)(F)F)c4)[nH]c3nc2=O)cc1` (stereo partly shown) [Compound 460] was “+ (a “+” indicates that the compound has an MIC value of 16 micrograms/ml or less)”; that for `C[C@H](N)CCCc1cc2c(c(-c3cc4cn(-c5ccc([C@H](C)NCCCNC(=N)N)cc5)c(=O)nc4[nH]3)c1)CCC2=O` [Compound 461] was “+ (a “+” indicates that the compound has an MIC value of 16 micrograms/ml or less)”.
The result for `C[C@H](N)CCCc1cc(F)c(F)c(-c2cc3cn(-c4ccc([C@H](C)NCCCNC(=N)N)cc4)c(=O)nc3[nH]2)c1` [Compound 462] reads “+ (a “+” indicates that the compound has an MIC value of 16 micrograms/ml or less)”; that for `C[C@H](N)CCCc1cc(F)c(F)c(-c2cc3cn(-c4ccc(CNCCCNC(=N)N)cc4)c(=O)nc3[nH]2)c1` [Compound 463], “+ (a “+” indicates that the compound has an MIC value of 16 micrograms/ml or less)”.
In the case of `C[C@H](N)CCCc1cc(-c2cc3cn(-c4ccc([C@H](C)NCCCNC(=N)N)cc4)c(=O)nc3[nH]2)cc(F)c1F` [Compound 464], the “E. coli ATCC25922 MIC” value is “+ (a “+” indicates that the compound has an MIC value of 16 micrograms/ml or less)”.
The value for `C[C@H](N)CCCc1cc(-c2cc3cn(-c4ccc(CNCCCNC(=N)N)cc4)c(=O)nc3[nH]2)cc(F)c1F` [Compound 465] was “+ (a “+” indicates that the compound has an MIC value of 16 micrograms/ml or less)”.
The result for `C[C@H](N)CCCc1cc(-c2cc3cn(-c4ccc([C@H](C)NCCCNC(=N)N)cc4)c(=O)nc3[nH]2)c(F)c(C2CCOC2)c1` (stereo partly shown) [Compound 466] reads “+ (a “+” indicates that the compound has an MIC value of 16 micrograms/ml or less)”.
